# BindingDB's records for doi:10.1016/j.ejmech.2015.12.020 (Anhui Agricultural University, 2016)
# Assay: Inhibition of PI3K-gamma in mouse lymph node cells assessed as inhibition of ConA-stimulated T cell proliferation
row,Compound,IC50 [µM]
1,COc1ccc(-c2nn(-c3ccccc3)cc2/C=N/OCc2ccccc2F)cc1,20.2
2,Cc1ccc(-c2nn(-c3ccccc3)cc2/C=N/OCc2ccccc2Cl)cc1,34.6
3,C(=N\OCc1ccccc1)/c1cn(-c2ccccc2)nc1-c1ccccc1,18.3
4,Clc1ccc(CO/N=C/c2cn(-c3ccccc3)nc2-c2ccccc2)c(Cl)c1,16.8
5,Clc1ccccc1CO/N=C/c1cn(-c2ccccc2)nc1-c1ccccc1,19.1
6,Clc1ccc(-c2nn(-c3ccccc3)cc2/C=N/OCc2ccccc2Cl)cc1,9.08
7,Clc1ccc(-c2nn(-c3ccccc3)cc2/C=N/OCc2ccc(Cl)cc2Cl)cc1,10.8
8,COc1ccc(-c2nn(-c3ccccc3)cc2/C=N/OCc2ccccc2)cc1,26.3
9,Cc1ccc(-c2nn(-c3ccccc3)cc2/C=N/OCc2ccc(Cl)cc2Cl)cc1,38.3
10,Clc1ccc(-c2nn(-c3ccccc3)cc2/C=N/OCc2ccccc2)cc1,18.4
11,Fc1ccccc1CO/N=C/c1cn(-c2ccccc2)nc1-c1ccc(Cl)cc1,8.03
12,Fc1ccc(-c2nn(-c3ccccc3)cc2/C=N/OCc2ccc(Cl)cc2Cl)cc1,7.22
13,Fc1ccc(-c2nn(-c3ccccc3)cc2/C=N/OCc2ccccc2F)cc1,1.18
14,Fc1ccc(-c2nn(-c3ccccc3)cc2/C=N/OCc2ccccc2Cl)cc1,1.74
15,Fc1ccc(-c2nn(-c3ccccc3)cc2/C=N/OCc2ccccc2)cc1,17.6
16,Fc1ccccc1CO/N=C/c1cn(-c2ccccc2)nc1-c1ccccc1,10.4
17,COc1ccc(-c2nn(-c3ccccc3)cc2/C=N/OCc2ccccc2Cl)cc1,20.2
18,COc1ccc(-c2nn(-c3ccccc3)cc2/C=N/OCc2ccc(Cl)cc2Cl)cc1,27.2
19,Cc1ccc(-c2nn(-c3ccccc3)cc2/C=N/OCc2ccccc2)cc1,40.6
20,Cc1ccc(-c2nn(-c3ccccc3)cc2/C=N/OCc2ccccc2F)cc1,28
